Source: patent US9605005B2, “Alkynyl alcohols and methods of use” (Genentech, Inc., priority 2013, dated 2017)

Columns and labels:
[1] = test system: REL-A (p65) nuclear translocation, HeLa cells; experiment: REL-A (p65) nuclear translocation assay in HeLa cells (classical NF-kB signaling, TNF-α stimulated); assay type: cell-based; details: Homo sapiens, 0.5 h; HeLa cells, 10 ng/mL TNF-α for 30 minutes; read-out: REL-A HeLa Transloc Assay (IC50)
Method in brief: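 HeLa cells were exposed to test compounds at various concentrations (0.2% DMSO final) in medium with 10% fetal bovine serum for 4.5 hours, then stimulated for 30 minutes with 10 ng/mL TNF-α. After fixation in 4% paraformaldehyde, 0.1% Triton X-100 permeabilization and staining with 400 ng/mL anti-REL-A (p65) antibody, Alexa488 secondary and DRAQ5, Opera imaging gave nuclear-to-cytoplasmic signal ratios to calculate IC50.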

[2] = biological target: nuclear factor-kappa B (NF-kB)-inducing kinase (NIK) (Homo sapiens (Human), UniProt Q99558); experiment: NIK enzyme inhibition assay (Transcreener ADP, NIK ADP-FP); assay type: biochemical; details: purified NIK 0.5 nM, 10 μM ATP, fluorescence polarization; read-out: NIK ADP-FP (Ki μM)
Sequence of nuclear factor-kappa B (NF-kB)-inducing kinase (NIK) (Q99558 whole entry): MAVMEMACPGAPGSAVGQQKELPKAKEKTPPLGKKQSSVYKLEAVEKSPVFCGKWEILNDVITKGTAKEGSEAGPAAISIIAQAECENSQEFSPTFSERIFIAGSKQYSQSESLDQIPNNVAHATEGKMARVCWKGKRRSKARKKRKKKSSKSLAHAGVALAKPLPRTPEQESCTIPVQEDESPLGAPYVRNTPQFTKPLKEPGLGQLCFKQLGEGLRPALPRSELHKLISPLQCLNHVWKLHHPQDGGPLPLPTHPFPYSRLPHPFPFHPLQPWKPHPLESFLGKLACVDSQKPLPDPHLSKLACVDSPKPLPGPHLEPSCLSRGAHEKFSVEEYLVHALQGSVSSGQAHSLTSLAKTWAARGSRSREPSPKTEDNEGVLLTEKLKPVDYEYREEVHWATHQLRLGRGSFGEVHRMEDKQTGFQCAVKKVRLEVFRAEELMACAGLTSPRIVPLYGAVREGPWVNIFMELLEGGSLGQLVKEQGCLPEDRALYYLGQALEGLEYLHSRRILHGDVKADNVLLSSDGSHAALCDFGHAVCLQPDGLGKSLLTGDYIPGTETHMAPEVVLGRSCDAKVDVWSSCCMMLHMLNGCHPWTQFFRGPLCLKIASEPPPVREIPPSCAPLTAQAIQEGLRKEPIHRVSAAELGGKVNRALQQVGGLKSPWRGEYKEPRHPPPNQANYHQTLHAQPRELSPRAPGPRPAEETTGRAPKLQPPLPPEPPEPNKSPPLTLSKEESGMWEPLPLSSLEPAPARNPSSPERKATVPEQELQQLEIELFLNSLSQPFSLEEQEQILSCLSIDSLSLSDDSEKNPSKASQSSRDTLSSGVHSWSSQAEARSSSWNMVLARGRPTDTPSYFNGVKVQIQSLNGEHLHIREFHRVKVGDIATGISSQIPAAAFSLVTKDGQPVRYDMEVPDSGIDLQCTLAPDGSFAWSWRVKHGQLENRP

[3] = test system: p52 (NF-kB2) nuclear translocation, HeLa cells; experiment: p52 (NF-kB2) nuclear translocation assay in HeLa cells (non-classical NF-kB signaling, anti-lymphotoxin beta receptor antibody stimulated); assay type: cell-based; details: Homo sapiens, 100 ng/mL anti-lymphotoxin beta receptor antibody for 5 hours, read-out: p52 HeLa Transloc Assay (IC50)
Method in brief: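 HeLa cells in 10% FBS medium were treated with compound (0.2% DMSO final) and stimulated with 100 ng/mL anti-lymphotoxin beta receptor antibody for 5 h. Fixed cells were immunostained for p52 and imaged with DRAQ5 nuclear stain. Translocation is the nuclear to cytoplasmic intensity ratio, and IC50 values are in micromolar.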

Q: With CN1CC[C@@](O)(C#Cc2cccc(-c3nc(C(N)=O)n4ccc(CN5CCOCC5)cc34)c2)C1=O [Compound 99, 1-[3-[2-[(3R)-3-hydroxy-1-methyl-2-oxo-pyrrolidin-3-yl]ethynyl]phenyl]-7-(morpho-linomethyl)imidazo[1,5-a]pyridine-3-carboxamide] as the molecule, how does the IC50 [1] read?
A: The IC50 was 2000 nM.

Q: What about the Ki [2] of the same molecule?
A: The Ki was 1.52 nM.

Q: And the IC50 [3]?
A: Its IC50 is 231 nM.

Q: With CN1CC[C@@](O)(C#Cc2cccc(-c3nc(C(N)=O)n4cc(CN5CCOCC5)ccc34)c2)C1=O [Compound 100, 1-[3-[2-[(3R)-3-hydroxy-1-methyl-2-oxo-pyrrolidin-3-yl]ethynyl]phenyl]-6-(morpho-linomethyl)imidazo[1,5-a]pyridine-3-carboxamide] as the molecule, how does the IC50 [1] read?
A: The IC50 was 2000 nM.

Q: What about the Ki [2] of the same molecule?
A: Its Ki is 1.65 nM.

Q: And the IC50 [3]?
A: Its IC50 is 156 nM.

Q: What does the source list for CN1CC[C@@](O)(C#Cc2cccc(-n3nc(C(N)=O)c4cc(-c5ccn(C)n5)ccc43)c2)C1=O [Compound 101, 1-[3-[2-[(3R)-3-hydroxy-1-methyl-2-oxo-pyrrolidin-3-yl]ethynyl]phenyl]-5-(1-meth-ylpyrazol-3-yl)indazole-3-carboxamide]?
A: IC50 [1]: 6320 nM; Ki [2]: 0.06 nM; IC50 [3]: 31.2 nM

Q: CN1CC[C@@](O)(C#Cc2cccc(-n3nc(C(N)=O)c4cc(-c5cnn(C)c5)cnc43)c2)C1=O [Compound 104, 1-[3-[2-[(3R)-3-hydroxy-1-methyl-2-oxo-pyrrolidin-3-yl]ethynyl]phenyl]-5-(1-meth-ylpyrazol-4-yl)pyrazolo[3,4-b]pyridine-3-carboxamide] was tested. Which IC50 [1] did it give?
A: Its IC50 is 2000 nM.

Q: And the Ki [2]?
A: Its Ki is 0.1 nM.

Q: And the IC50 [3]?
A: Its IC50 is 26.7 nM.

Q: With C[C@@H]1CCc2c1c(C(N)=O)nn2-c1cccc(C#C[C@]2(O)CCN(C)C2=O)c1 [Compound 109, (4R)-1-[3-[2-[(3R)-3-hydroxy-1-methyl-2-oxo-pyrrolidin-3-yl]ethynyl]phenyl]-4-methyl-5,6-dihydro-4H-cyclo-penta[c]pyrazole-3-carbox-amide] as the molecule, how does the IC50 [1] read?
A: Its IC50 is 20000 nM.

Q: What about the Ki [2] of the same molecule?
A: The Ki was 9.58 nM.

Q: What about the IC50 [3] of the same molecule?
A: The IC50 was 209 nM.

Q: How did the IC50 [1] turn out when C[C@H]1CCc2c1c(C(N)=O)nn2-c1cccc(C#C[C@]2(O)CCN(C)C2=O)c1 [Compound 110, (4S)-1-[3-[2-[(3R)-3-hydroxy-1-methyl-2-oxo-pyrrolidin-3-yl]ethynyl]phenyl]-4-methyl-5,6-dihydro-4H-cyclo-penta[c]pyrazole-3-carbox-amide] was run?
A: Its IC50 is 20000 nM.

Q: And the Ki [2]?
A: Its Ki is 0.55 nM.

Q: What about the IC50 [3] of the same molecule?
A: The IC50 was 244 nM.

Q: Which results are given for CN1CC[C@@](O)(C#Cc2cc(C#N)cc(-n3nc(C(N)=O)c4cccnc43)c2)C1=O [Compound 111, 1-[3-cyano-5-[2-[(3R)-3-hy-droxy-1-methyl-2-oxo-pyrroli-din-3-yl]ethynyl]phenyl] pyrazolo[3,4-b]pyridine-3-carboxamide]?
A: IC50 [1]: 20000 nM; Ki [2]: 4.86 nM; IC50 [3]: 701 nM

Q: With CN1CC[C@@](O)(C#Cc2cccc(-n3nc(C(N)=O)c4cc(-c5cnn(CCO)c5)ccc43)c2)C1=O [Compound 113, 5-[1-(2-hydroxyethyl)pyrazol-4-yl]-1-[3-[2-[(3R)-3-hy-droxy-1-methyl-2-oxo-pyrroli-din-3-yl]ethynyl]phenyl] indazole-3-carboxamide] as the molecule, how does the IC50 [1] read?
A: Its IC50 is 20000 nM.

Q: What about the Ki [2] of the same molecule?
A: The Ki was 0.07 nM.

Q: And the IC50 [3]?
A: The IC50 was 440 nM.

Q: With CN1CC[C@@](O)(C#Cc2cccc(-n3nc(C(N)=O)c4cncnc43)c2)C1=O [Compound 114, 1-[3-[2-[(3R)-3-hydroxy-1-methyl-2-oxo-pyrrolidin-3-yl]ethynyl]phenyl]pyrazolo [3,4-d]pyrimidine-3-carbox-amide] as the molecule, how does the IC50 [1] read?
A: Its IC50 is 20000 nM.

Q: And the Ki [2]?
A: The Ki was 0.19 nM.

Q: What about the IC50 [3] of the same molecule?
A: The IC50 was 39.4 nM.

Q: Which results are given for C[C@@](O)(C#Cc1cccc(-n2nc(C(N)=O)c3ccccc32)c1)c1c[nH]nn1 [Compound 117, 1-[3-[(3R)-3-hydroxy-3-(1H-triazol-4-yl)but-1-ynyl]phe-nyl]indazole-3-carboxamide]?
A: IC50 [1]: 20000 nM; Ki [2]: 0.32 nM; IC50 [3]: 74.3 nM

Q: For CN1CC[C@@](O)(C#Cc2cccc(-n3nc(C(N)=O)c4c3CCC4)c2)C1=O [Compound 119, 1-[3-[2-[(3R)-3-hydroxy-1-methyl-2-oxo-pyrrolidin-3-yl]ethynyl]phenyl]-5,6-dihydro-4H-cyclopenta[c]pyrazole-3-carboxamide], which IC50 [1] is on record?
A: Its IC50 is 20000 nM.

Q: What about the Ki [2] of the same molecule?
A: Its Ki is 0.43 nM.

Q: What about the IC50 [3] of the same molecule?
A: Its IC50 is 45.8 nM.

Q: How did the IC50 [1] turn out when CN1CC[C@@](O)(C#Cc2cccc(-n3nc(C(N)=O)c4c3CCN(c3ccncn3)C4)c2)C1=O [Compound 120, 1-[3-[2-[(3R)-3-hydroxy-1-methyl-2-oxo-pyrrolidin-3-yl]ethynyl]phenyl]-5-pyrimi-din-4-yl-6,7-dihydro-4H-pyra-zolo[4,5-c]pyridine-3-carbox-amide] was run?
A: The IC50 was 20000 nM.

Q: And the Ki [2]?
A: The Ki was 0.52 nM.

Q: What about the IC50 [3] of the same molecule?
A: The IC50 was 1430 nM.

Q: For CN1CC[C@@](O)(C#Cc2cccc(-n3nc(C(N)=O)c4c3CCN(c3ncccn3)C4)c2)C1=O [Compound 121, 1-[3-[2-[(3R)-3-hydroxy-1-methyl-2-oxo-pyrrolidin-3-yl]ethynyl]phenyl]-5-pyrimi-din-2-yl-6,7-dihydro-4H-pyra-zolo[4,3-c]pyridine-3-carbox-amide], which IC50 [1] is on record?
A: Its IC50 is 20000 nM.

Q: And the Ki [2]?
A: Its Ki is 1.05 nM.

Q: And the IC50 [3]?
A: The IC50 was 203 nM.

Q: How did the IC50 [1] turn out when CN1CC[C@@](O)(C#Cc2cccc(-n3nc(C(N)=O)c4c3CCN(c3nccs3)C4)c2)C1=O [Compound 122, 1-[3-[2-[(3R)-3-hydroxy-1-methyl-2-oxo-pyrrolidin-3-yl]ethynyl]phenyl]-5-thiazol-2-yl-6,7-dihydro-4H-pyra-zolo[4,3-c]pyridine-3-carbox-amide] was run?
A: The IC50 was 20000 nM.

Q: What about the Ki [2] of the same molecule?
A: Its Ki is 0.29 nM.

Q: And the IC50 [3]?
A: Its IC50 is 266 nM.

Q: Which results are given for CCNc1nccc2c1c(C(N)=O)nn2-c1cccc(C#C[C@]2(O)CCN(C)C2=O)c1 [Compound 129, 4-(ethylamino)-1-[3-[2-[(3R)-3-hydroxy-1-methyl-2-oxo-pyrrolidin-3-yl]ethynyl]phenyl]pyrazolo[4,3-c]pyri-dine-3-carboxamide]?
A: IC50 [1]: 4470 nM; Ki [2]: 0.05 nM; IC50 [3]: 8.12 nM

Q: How did the IC50 [1] turn out when CN1CC[C@@](O)(C#Cc2cccc(-n3nc(C(N)=O)c4c(NC5CC5)nccc43)c2)C1=O [Compound 130, 4-(cyclopropylamino)-1-[3-[2-[(3R)-3-hydroxy-1-meth-yl-2-oxo-pyrrolidin-3-yl]eth-ynyl]phenyl]pyrazolo[4,3-c]pyridine-3-carboxamide] was run?
A: Its IC50 is 2000 nM.

Q: And the Ki [2]?
A: Its Ki is 0.11 nM.

Q: What about the IC50 [3] of the same molecule?
A: The IC50 was 53.1 nM.

Q: What does the source list for Cc1cc2c(cn1)c(C(N)=O)nn2-c1cccc(C#C[C@]2(O)CCN(C)C2=O)c1 [Compound 131, 1-[3-[2-[(3R)-3-hydroxy-1-methyl-2-oxo-pyrrolidin-3-yl]ethynyl]phenyl]-6-methyl-pyrazolo[4,3-c]pyridine-3-carboxamide]?
A: IC50 [1]: 20000 nM; Ki [2]: 0.31 nM; IC50 [3]: 87 nM

Q: Which results are given for CN1CC[C@@](O)(C#Cc2cccc(-n3nc(C(N)=O)c4cnccc43)c2)C1=O [Compound 132, 1-[3-[2-[(3R)-3-hydroxy-1-methyl-2-oxo-pyrrolidin-3-yl]ethynyl]phenyl]pyrazolo [4,3-c]pyridine-3-carboxamide]?
A: IC50 [1]: 20000 nM; Ki [2]: 0.378 nM; IC50 [3]: 88.7 nM

Q: With N#Cc1cc2c(cn1)c(C(N)=O)nn2-c1cccc(C#C[C@@]2(O)CCc3cccnc32)c1 [Compound 135, 6-cyano-1-[3-[2-[(7S)-7-hy-droxy-5,6-dihydrocyclopen-ta[b]pyridin-7-yl]ethynyl]phe-nyl]pyrazolo[4,3-c]pyridine-3-carboxamide] as the molecule, how does the IC50 [1] read?
A: The IC50 was 20000 nM.

Q: What about the Ki [2] of the same molecule?
A: The Ki was 0.7 nM.

Q: What about the IC50 [3] of the same molecule?
A: The IC50 was 91.4 nM.
